According to the NIST ThermoML archive (doi:10.1021/je025649t):

Key:
[1] = heat capacity at constant pressure per volume; xn = mol fraction of the nth substance listed; settings: 298.15 K, 101 kPa, Liquid, Flow calorimetry
[2] = refractive index (Na D-line) (dimensionless); xn = mol fraction of the nth substance listed; settings: 298.15 K, 101 kPa, Liquid, refractometer
[3] = excess molar enthalpy (molar enthalpy of mixing); xn = mol fraction of the nth substance listed; settings: 298.15 K, 101 kPa, Liquid, Flow calorimetry
[4] = xn = mol fraction of the nth substance listed; settings: 298.15 K, 101 kPa, Liquid, Vibrating tube method

O=C1CCCC1 [cyclopentanone] + C1CCOCC1
Settings | excess molar enthalpy [kJ/mol] | heat capacity [J/K/m3] | mass density [kg/m3] | refractive index
[1], x2 = 0.0715 | – | 1697900 | – | –
[1], x2 = 0.1485 | – | 1683000 | – | –
[1], x2 = 0.2279 | – | 1667700 | – | –
[1], x2 = 0.3826 | – | 1638300 | – | –
[1], x2 = 0.4613 | – | 1623300 | – | –
[1], x2 = 0.5422 | – | 1608000 | – | –
[1], x2 = 0.6258 | – | 1592400 | – | –
[1], x2 = 0.6965 | – | 1579400 | – | –
[1], x2 = 0.777 | – | 1564600 | – | –
[1], x2 = 0.8588 | – | 1549700 | – | –
[1], x2 = 0.9378 | – | 1535300 | – | –
[2], x2 = 0.0723 | – | – | – | 1.4337
[2], x2 = 0.153 | – | – | – | 1.43231
[2], x2 = 0.2311 | – | – | – | 1.43098
[2], x2 = 0.3083 | – | – | – | 1.42967
[2], x2 = 0.3514 | – | – | – | 1.42895
[2], x2 = 0.3917 | – | – | – | 1.42828
[2], x2 = 0.4314 | – | – | – | 1.42762
[2], x2 = 0.4691 | – | – | – | 1.427
[2], x2 = 0.5026 | – | – | – | 1.42645
[2], x2 = 0.5485 | – | – | – | 1.42571
[2], x2 = 0.5911 | – | – | – | 1.42502
[2], x2 = 0.6215 | – | – | – | 1.42454
[2], x2 = 0.6618 | – | – | – | 1.4239
[2], x2 = 0.7097 | – | – | – | 1.42314
[2], x2 = 0.7897 | – | – | – | 1.42189
[2], x2 = 0.8648 | – | – | – | 1.42073
[2], x2 = 0.9456 | – | – | – | 1.41948
[3], x2 = 0.1 | 0.0531 | – | – | –
[3], x2 = 0.15 | 0.0757 | – | – | –
[3], x2 = 0.2 | 0.0961 | – | – | –
[3], x2 = 0.25 | 0.113 | – | – | –
[3], x2 = 0.3 | 0.127 | – | – | –
[3], x2 = 0.35 | 0.139 | – | – | –
[3], x2 = 0.4 | 0.148 | – | – | –
[3], x2 = 0.45 | 0.154 | – | – | –
[3], x2 = 0.5 | 0.158 | – | – | –
[3], x2 = 0.55 | 0.158 | – | – | –
[3], x2 = 0.6 | 0.155 | – | – | –
[3], x2 = 0.65 | 0.149 | – | – | –
[3], x2 = 0.7 | 0.141 | – | – | –
[3], x2 = 0.75 | 0.128 | – | – | –
[3], x2 = 0.8 | 0.112 | – | – | –
[3], x2 = 0.85 | 0.0916 | – | – | –
[3], x2 = 0.9 | 0.0659 | – | – | –
[4], x2 = 0.0621 | – | – | 939.88 | –
[4], x2 = 0.1532 | – | – | 933.66 | –
[4], x2 = 0.2354 | – | – | 928.1 | –
[4], x2 = 0.309 | – | – | 923.12 | –
[4], x2 = 0.3167 | – | – | 922.64 | –
[4], x2 = 0.346 | – | – | 920.67 | –
[4], x2 = 0.3516 | – | – | 920.32 | –
[4], x2 = 0.3936 | – | – | 917.52 | –
[4], x2 = 0.3997 | – | – | 917.16 | –
[4], x2 = 0.4297 | – | – | 915.15 | –
[4], x2 = 0.4312 | – | – | 915.07 | –
[4], x2 = 0.4661 | – | – | 912.74 | –
[4], x2 = 0.4676 | – | – | 912.7 | –
[4], x2 = 0.5105 | – | – | 909.9 | –
[4], x2 = 0.5187 | – | – | 909.32 | –
[4], x2 = 0.5466 | – | – | 907.55 | –
[4], x2 = 0.5498 | – | – | 907.3 | –
[4], x2 = 0.5959 | – | – | 904.37 | –
[4], x2 = 0.6289 | – | – | 902.25 | –
[4], x2 = 0.6335 | – | – | 901.96 | –
[4], x2 = 0.6618 | – | – | 900.16 | –
[4], x2 = 0.708 | – | – | 897.22 | –
[4], x2 = 0.7941 | – | – | 891.79 | –
[4], x2 = 0.8569 | – | – | 887.85 | –
[4], x2 = 0.9351 | – | – | 882.98 | –
[4], x2 = 0.939 | – | – | 882.71 | –
